Measurements published in patent US20070059385A1, “Safe pharmaceutical composition for treating and preventing cancer and method of use” (priority 2005, published 2007).

Key:
HL-60 cells = assay: Induction of differentiation (NBT reduction) of human leukemic cells; format: cell-based; conditions: Mu, GU, MAT, IND 50 ng/ml, higher NBT (%) means higher normal cells
Method: HL-60 cells were established from a patient with acute myeloid leukemia. The cells were cultured in culture flasks with RPMI plus 10% FCS.
Differentiation of HL-60 cells was assessed by their abilities to produced superoxide as measured by reduction of NBT, by NSE staining and by morphology as detected on cytospin preparations stained with Diff-Quick stain Set, and by analysis of membrane-bound differentiation markers with two-color immunofluorescence. Briefly, cells were preincubated at 4° C. for 60 min in 10% human AB serum and then with FITC-conjugated mouse IgGI isotype control. Analysis of fluorescence was performed on a flow cytometer.
HL-60 cells were culture in a two-layer soft agar system for 10 days without adding any growth factors as described previously, and colonies were counted using an inverted microscope. The analogues were added to the agar upper layer on day 0. For analysis of the reversibility of inhibition of proliferation, the cells were cultured in suspension culture with and without HHT or other drugs. After 60 hours, the culture flasks were gently jarred to loosen adherent cells, the cells were washed twice in cultured medium containing 10% FCS to remove the test drugs, and then the clonogenic assay was performed. NBT% indicated percentage of normal cells.

carcinogen-DNA binding = assay: Inhibition of carcinogen-DNA binding; format: cell-based
Method: Cells were maintained in 75-cm^2 tissue culture flask with media supplemented with retinoic acid (0.1 μg/ml) and epinephrine (0.5 μg/ml). The cells were passage when they reached approximately 80% confluence and were maintained at 37° C. in 5% CO2. Cells were plated at a density of 5×10^5 cells/well in 6-well tissue culture plates and allowed to incubated for 18 h at 37° C. in 5% CO2. Following incubation, the DNA was harvested and resuspended in Tris-EDTA buffer. RNA was removed by treating with RNase T1 and RNase A at 37° C. for 1 h. An aliquot was used for determining the DNA content by the absorbency at 260 nm, and the rest of the sample was used to determine the radioactivity; the percentage inhibition of carcinogen-DNA binding was determined by measuring the cpm/mg of DNA in the carcinogen.

TA97 = assay: Salmonella mutagenicity assay TA97
Method: The method for detecting mutagenicity of HHT, with the Salmonella system that detects the reversion of the bacteria from His^− to His^+, is widely used.
The bacterial tester strains used for mutagenesis testing are TA97, TA98, TA100 and TA102. Mutagenesis testing method was done as described previously ^[77-88]. In brief, TA97, TA98, TA100 and TA102 were grown in agar gel culture. The petri plats (100×15 mm style) contain 30 ml with 2% glucose. The agar mixture was agitated vigorously and immediately poured into plates of minimal agar. The cultures were incubated at 37° C. in a dark and 5% CO2 in air for 48 hours. After 48 hours the colonies in both test and controls are counted. The presence of a background lawn of bacteria on the histidine-poor soft agar plate was used as an indication that gross toxic effects were absent. Mutagenicity assays were carried out at least in triplicate.
The range of spontaneous mutation rates for the individual strains, which were considered to be acceptable, was TA97 (100-170), TA98 (20-40) and TA100 (80-150).

Normal cells = assay: Apoptosis of normal cells; format: cell-based
Method: Cells ([…] were incubated in 10 ml IMDM plus […] heat-inactivated fetal calf serum. Samples were incubated for 24 hours with various concentrations of drugs. Control samples received the same amount of media, without drug addition. After 24 hours of incubation the samples were pelleted and fixed in ethanol […] for 15 minutes at 4° C.; after three washes in PBS, the cells were treated with RNase I 0.5 mg/ml for 15 minutes at 37° C. The cells were harvested by centrifugation and resuspended in 50 μg/ml propidium iodide in PBS. Analysis (upon acquisition of 10,000-20,000 events) was performed on a FACscan flow cytometer with the FL2 detector in logarithmic mode, using Lysis II software (Becton Dickinson). Apoptotic cells were located in the hypodiploid region of the histogram, due to chromosome condensation and fragmentation.
For evaluation of apoptosis by flow cytometry, cells were fixed and permeabilized in 1% paraformaldehyde and ice-cold 70% ethanol. Digoxigenin-dUTP was incorporated at the 3′OH ends of the fragmented DNA in the presence of terminal deoxynucleotidyltranserase, and the cells were incubated with FITC-labeled anti-digoxigenin-dUTP and with propidium iodide. Green (apoptotic cells) and orange (total DNA) fluorescence were measured with a FACScan flow cytometer and analyzed with LYSIS II and CELLFIT programs. Data were analyzed by Student's t-test. P values were considered significant when <0.05. […]

L615 transplanted tumor = assay: Growth of transplanted tumor in mice; format: in vivo; conditions: intraperitoneally, sacrificed on the 12th day
Method: Male mice, weight 20-22 g, were used in the experiment. 1×10^7 tumor cells were injected to mouse and other drugs injected intraperitoneally began second day. All mice were sacrificed on the 12th day, isolated the tumor and weighed and calculated the inhibition rate of tumor weight.
The effect of other drugs and HHT on the growth of animal transplanted tumor as illustrated by the Table 6.20 mg/kg of other drugs could inhibit the growth of L615 transplanted tumor.

gastric cancer cells = assay: Cellular diversion of gastric cancer cells (NBT); format: cell-based
Method: The gastric cancer cells and normal cells were cultured in PRMI 1640 medium supplement with 10% FCS serum. Other method is similar to example 8.

How did the “NBT (%)” value (HL-60 cells) turn out when `COC(=O)C[C@](O)(CCCC(C)(C)O)C(=O)O[C@@H]1C(OC)=C[C@]23CCCN2CCc2cc4c(cc2[C@H]13)OCO4` [HHT, Homoharringtonine] was run?
The value was 65 ± 7.0 %.

What about the “Inhibition (%) of carcinogen-DNA binding” value (carcinogen-DNA binding) of the same molecule?
The value was 56.8 ± 6.2%.

What about the “Number of His^+ revertants/plate” value (TA97; TA97 +S, 0.1 μg/plate) of the same molecule?
The value was 145 ± 14 revertants/plate.

And the “Number of His^+ revertants/plate” value (TA97; TA97 +S, 1 μg/plate)?
The value was 150 ± 14 revertants/plate.

And the “Number of His^+ revertants/plate” value (TA97; TA97 +S, 10 μg/plate)?
The value was 165 ± 16 revertants/plate.

What about the “Number of His^+ revertants/plate” value (TA97; TA97 +S, 100 μg/plate) of the same molecule?
Its value is 160 ± 17 revertants/plate.

And the “Number of His^+ revertants/plate” value (TA97; TA97 −S, 0.1 μg/plate)?
The value was 120 ± 10 revertants/plate.

And the “Number of His^+ revertants/plate” value (TA97; TA97 −S, 1 μg/plate)?
Its value is 130 ± 11 revertants/plate.

What about the “Number of His^+ revertants/plate” value (TA97; TA97 −S, 10 μg/plate) of the same molecule?
The value was 160 ± 16 revertants/plate.

What about the “Number of His^+ revertants/plate” value (TA97; TA97 −S, 100 μg/plate) of the same molecule?
The value was 150 ± 16 revertants/plate.

What about the “Apoptosis (%)” value (Normal cells; HHT 10 ng/ml) of the same molecule?
Its value is 16.5 ± 2.0 %.

And the “Apoptosis (%)” value (Normal cells; HHT 50 ng/ml)?
The value was 18.5 ± 2.5 %.

What about the “Apoptosis (%)” value (Normal cells; HHT 100 ng/ml) of the same molecule?
Its value is 22.0 ± 3.5 %.

And the “Apoptosis (%)” value (Normal cells; HHT 500 ng/ml)?
Its value is 29.5 ± 5.2 %.

And the “Apoptosis (%)” value (Normal cells; Table 4, HHT (50 ng/ml) alone or in combination)?
The value was 18.5 ± 2.5%.

And the “Inhibition (%) of transplanted tumor (tumor weight)” value (L615 transplanted tumor)?
Its value is 68 ± 7.2%.

And the “NBT (%)” value (gastric cancer cells)?
Its value is 58 ± 8.9 %.
